The text below walks through data of patent publication US12466781B2, “Thyromimetics” (Autobahn Therapeutics, Inc., priority 2019, dated 2025).

As a reminder, the EC50 is the concentration that produces a half-maximal response.

Bounds are passed on as bounds.

In assay [1] the target is T1, TRα (Homo sapiens, UniProt P10827).
T1 construct: expressed in transfected cells; host or cells: HEK293
T1 sequence (P10827 163-410 isoform P10827-2 limits assumed): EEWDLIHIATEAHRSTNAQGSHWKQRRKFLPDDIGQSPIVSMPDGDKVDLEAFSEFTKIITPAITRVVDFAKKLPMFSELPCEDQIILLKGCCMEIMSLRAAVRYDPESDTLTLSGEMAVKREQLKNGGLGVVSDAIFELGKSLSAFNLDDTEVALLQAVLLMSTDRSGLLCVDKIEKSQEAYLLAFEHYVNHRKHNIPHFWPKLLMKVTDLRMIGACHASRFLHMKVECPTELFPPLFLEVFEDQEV
The assay can be described thus: Thyroid-hormone reporter-gene assay (TRα-Gal4 hybrid, luciferase, HEK293). It counts as cell-based. Particulars: reporter cells, 24 hr incubation; Table 2; read-out: TRα (EC50). As for the experimental part:
(§1) Compounds were tested for thyroid-hormone receptor activity using TR reporter-gene assays. Reporter cells used in the assays express a TR-receptor hybrid (either TRα or TRβ) in which the native N-terminal DNA binding domain (DBD) has been replaced with that of the yeast Gal4 DBD. The reporter gene, firefly luciferase, is functionally linked to the Gal4 upstream activation sequence (UAS). Both cell lines were derived from human embryonic kidney (HEK293).
(§2) Step 1: A suspension of reporter cells was prepared in cell recovery medium containing 10% charcoal-stripped FBS, and dispensed into assay plates. The plates were pre-incubated for 6 hours in a cell culture incubator (37° C./5% CO2/85% humidity).
(§3) These intermediate stocks were subsequently diluted directly into compound screening medium containing 10% charcoal-stripped FBS to generate “2×-concentration” treatment media (containing 0.2, 0.4 or 0.8% DMSO).
(§4) Step 3: At the end of the pre-incubation period, culture media were discarded from the assay plates, and all wells received 100 μl of compound screening medium. 100 μl of each of the previously prepared “2×-concentration” treatment media were dispensed into duplicate assay wells, thereby achieving the desired final treatment concentrations. The final concentration of DMSO in all assay wells was 0.1, 0.2 or 0.4%. Assay plates were incubated for 24 hr in a cell culture incubator (37° C./5% CO2/85% humidity).
(§5) Step 4: At the 24 h assay endpoint, treatment media were discarded and 100 μl/well of luciferase detection reagent was added. Relative luminometer units (RLUs) were quantified from each assay well.

Assay [2] has as its target T2, TRβ (Homo sapiens, UniProt P10828).
T2 construct: expressed in transfected cells; host or cells: HEK293
T2 sequence (P10828 217-461 limits assumed): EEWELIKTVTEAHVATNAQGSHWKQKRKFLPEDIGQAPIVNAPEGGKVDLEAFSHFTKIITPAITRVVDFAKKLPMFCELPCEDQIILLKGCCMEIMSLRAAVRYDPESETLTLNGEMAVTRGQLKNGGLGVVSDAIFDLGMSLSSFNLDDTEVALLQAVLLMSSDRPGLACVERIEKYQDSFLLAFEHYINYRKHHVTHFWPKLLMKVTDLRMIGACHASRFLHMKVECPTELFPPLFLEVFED
The experiment in a line: Thyroid-hormone reporter-gene assay (TRβ-Gal4 hybrid, luciferase, HEK293). The class given is cell-based. Particulars: Table 2; for T3-SI (selectivity index): calculated as EC50 (TRα)/EC50 (TRβ); for EC50: reporter cells, 24 hr incubation, read-out: TRβ (EC50). As for the experimental part: as §1, §2, §3, §4, §5

With `C=Cc1c(F)c(OCC(=O)O)cc(Cl)c1Cc1ccc(O)c(C(C)C)c1` [Compound 67, 2-(5-chloro-2-fluoro-4-(4-hydroxy-3-isopropylbenzyl)-3-vinylphenoxy)acetic acid], the EC50 in assay [1] fell in the range of 100 to 1000 nM; in assay [2], 10 to 100 nM. The “T3-SI (selectivity index)” value in assay [2] is “++ (3×<T3-SI≤30×)”.

For `CCc1c(F)c(OCC(=O)O)cc(Cl)c1Cc1ccc(O)c(C(C)C)c1` [Compound 69, 2-(5-chloro-3-ethyl-2-fluoro-4-(4-hydroxy-3-isopropylbenzyl)phenoxy)acetic acid], the EC50 in assay [1] is greater than 1000 nM. In assay [2], the “T3-SI (selectivity index)” value is “++ (3×<T3-SI≤30×)” and the EC50 lay within 100 to 1000 nM.

Turning to `CC(C)c1cc(Cc2c(Cl)cc(OCC(=O)O)c(F)c2C(C)C)ccc1O` [Compound 73, 2-(5-chloro-2-fluoro-4-(4-hydroxy-3-isopropylbenzyl)-3-isopropylphenoxy)acetic acid], the EC50 in assay [1] is greater than 1000 nM; in assay [2], 100 to 1000 nM. The “T3-SI (selectivity index)” value in assay [2] was “+++ (T3-SI>30×)”.

Turning to `C=Cc1cc(OCC(=O)O)c(F)c(Cl)c1Cc1ccc(O)c(C(C)C)c1` [Compound 75, 2-(3-chloro-2-fluoro-4-(4-hydroxy-3-isopropylbenzyl)-5-vinylphenoxy)acetic acid], the EC50 in assay [1] lay within 100 to 1000 nM. In assay [2], the “T3-SI (selectivity index)” value was “+++ (T3-SI>30×)” and the EC50 lay in the range of 10 to 100 nM.

For `CCc1cc(OCC(=O)O)c(F)c(Cl)c1Cc1ccc(O)c(C(C)C)c1` [Compound 77, 2-(3-chloro-5-ethyl-2-fluoro-4-(4-hydroxy-3-isopropylbenzyl)phenoxy)acetic acid], in assay [1], the EC50 lay within 10 to 100 nM. Besides, in assay [2], the “T3-SI (selectivity index)” value is “++ (3×<T3-SI≤30×)” and the EC50 was in the range of 10 to 100 nM.

Consider `C=C(C)c1cc(OCC(=O)O)c(F)c(Cl)c1Cc1ccc(O)c(C(C)C)c1` [Compound 79, 2-(3-chloro-2-fluoro-4-(4-hydroxy-3-isopropylbenzyl)-5-(prop-1-en-2-yl)phenoxy)acetic acid], for which the EC50 in assay [1] lay within 100 to 1000 nM. In addition, in assay [2], the “T3-SI (selectivity index)” value was “+++ (T3-SI>30×)” and the EC50 fell in the range of 10 to 100 nM.

In the case of `CC(C)c1cc(Cc2c(C(C)C)cc(OCC(=O)O)c(F)c2Cl)ccc1O` [Compound 81, 2-(3-chloro-2-fluoro-4-(4-hydroxy-3-isopropylbenzyl)-5-isopropylphenoxy)acetic acid], the EC50 in assay [1] and in assay [2] was 10 to 100 nM in each case. Moreover, the “T3-SI (selectivity index)” value in assay [2] was “++ (3×<T3-SI≤30×)”.

In the case of `O=C(O)COc1cc(Cl)c(Cc2ccc(O)c(Cc3ccc(F)cc3)c2)c(Cl)c1F` [Compound 83, 2-(3,5-dichloro-2-fluoro-4-(3-(4-fluorobenzyl)-4-hydroxybenzyl)phenoxy)acetic acid], the EC50 in assay [1] fell in the range of 100 to 1000 nM. In addition, in assay [2], the “T3-SI (selectivity index)” value was “+++ (T3-SI>30×)” and the EC50 was 10 to 100 nM.

Regarding `CCCC(c1ccc(F)cc1)c1cc(Cc2c(Cl)cc(OCC(=O)O)c(F)c2Cl)ccc1O` (stereo not drawn) [Compound 85, 2-(3,5-dichloro-2-fluoro-4-(3-(1-(4-fluorophenyl)butyl)-4-hydroxybenzyl)phenoxy)acetic acid], in assay [1], the concentration giving a half-maximal response (EC50) is greater than 1000 nM. For the same compound, in assay [2], the “T3-SI (selectivity index)” value is “+++ (T3-SI>30×)” and the EC50 was in the range of 100 to 1000 nM.

In the case of `CC(C)c1cc(Cc2c(Cl)cc(OCC(=O)O)c(Cl)c2Cl)ccc1O` [Compound 89, 2-(2,3,5-trichloro-4-(4-hydroxy-3-isopropylbenzyl)phenoxy)acetic acid], the EC50 in assay [1] was in the range of 10 to 100 nM. Also, in assay [2], the “T3-SI (selectivity index)” value was “++ (3×<T3-SI≤30×)” and the EC50 lay within 10 to 100 nM.

For the compound `Cc1c(OCC(=O)O)cc(Cl)c(Cc2ccc(O)c(C(C)C)c2)c1Cl` [Compound 91, 2-(3,5-dichloro-4-(4-hydroxy-3-isopropylbenzyl)-2-methylphenoxy)acetic acid], the EC50 in assay [1] fell in the range of 100 to 1000 nM. Also, in assay [2], the “T3-SI (selectivity index)” value was “+++ (T3-SI>30×)” and the EC50 lay in the range of 10 to 100 nM.

Regarding `Cc1cc(OCC(=O)O)c(F)c(C)c1Cc1ccc(O)c(C(C)C)c1F` [Compound 93, 2-(2-fluoro-4-(2-fluoro-4-hydroxy-3-isopropylbenzyl)-3,5-dimethylphenoxy)acetic acid], the EC50 in assay [1] lay in the range of 100 to 1000 nM; in assay [2] it was 10 to 100 nM. Besides, the “T3-SI (selectivity index)” value in assay [2] is “+++ (T3-SI>30×)”.

As for `CC(C)c1c(O)ccc(Cc2c(Cl)cc(OCC(=O)O)c(F)c2Cl)c1F` [Compound 97, 2-(3,5-dichloro-2-fluoro-4-(2-fluoro-4-hydroxy-3-isopropylbenzyl)phenoxy)acetic acid], in assay [1], the EC50 lay within 10 to 100 nM. In addition, in assay [2], the “T3-SI (selectivity index)” value is “++ (3×<T3-SI≤30×)” and the EC50 is less than 10 nM.

With `O=C(O)COc1cc(Cl)c(Cc2ccc(O)c(-c3cc(OC(F)F)ccc3F)c2F)c(Cl)c1F` [Compound 101, 2-(3,5-dichloro-4-((5′-(difluoromethoxy)-2,2′-difluoro-6-hydroxy-[1,1′-biphenyl]-3-yl)methyl)-2-fluorophenoxy)acetic acid], in assay [1], the EC50 is greater than 1000 nM. Also, in assay [2], the “T3-SI (selectivity index)” value was “++ (3×<T3-SI≤30×)” and the EC50 fell in the range of 100 to 1000 nM.

Take `O=C(O)COc1cc(Cl)c(Cc2ccc(O)c(Cc3ccc(F)cc3)c2F)c(Cl)c1F` [Compound 103, 2-(3,5-dichloro-2-fluoro-4-(2-fluoro-3-(4-fluorobenzyl)-4-hydroxybenzyl)phenoxy)acetic acid]: in assay [1], the EC50 was 10 to 100 nM. Moreover, in assay [2], the “T3-SI (selectivity index)” value was “+++ (T3-SI>30×)” and the concentration for a half-maximal effect (EC50) was in the range of 10 to 100 nM.

`CC(c1ccc(F)cc1)c1c(O)ccc(Cc2c(Cl)cc(OCC(=O)O)c(F)c2Cl)c1F` (stereo not drawn) [Compound 107, 2-(3,5-dichloro-2-fluoro-4-(2-fluoro-3-(1-(4-fluorophenyl)ethyl)-4-hydroxybenzyl)phenoxy)acetic acid]: the EC50 in assay [1] and in assay [2] was 10 to 100 nM throughout. Moreover, the “T3-SI (selectivity index)” value in assay [2] was “++ (3×<T3-SI≤30×)”.

As to `Cc1cc(OCC(=O)O)c(F)c(Cl)c1Cc1ccc(O)c(C(C)C)c1F` [Compound 109, 2-(3-chloro-2-fluoro-4-(2-fluoro-4-hydroxy-3-isopropylbenzyl)-5-methylphenoxy)acetic acid], the EC50 in assay [1] was 10 to 100 nM. For the same compound, in assay [2], the “T3-SI (selectivity index)” value was “+++ (T3-SI>30×)” and the EC50 is less than 10 nM.

With `Cc1c(F)c(OCC(=O)O)cc(Cl)c1Cc1ccc(O)c(C(C)C)c1F` [Compound 112, 2-(5-chloro-2-fluoro-4-(2-fluoro-4-hydroxy-3-isopropylbenzyl)-3-methylphenoxy)acetic acid], the EC50 in assay [1] was 10 to 100 nM; in assay [2], less than 10 nM. For the same compound, the “T3-SI (selectivity index)” value in assay [2] was “++ (3×<T3-SI≤30×)”.

For `Cc1cc(OCC(=O)O)c(F)c(Cl)c1Cc1ccc(O)c(C(C)C)c1` [Compound 115, 2-(3-chloro-2-fluoro-4-(4-hydroxy-3-isopropylbenzyl)-5-methylphenoxy)acetic acid], the EC50 in assay [1] fell in the range of 100 to 1000 nM. In assay [2], the “T3-SI (selectivity index)” value was “++ (3×<T3-SI≤30×)” and the EC50 is 10 to 100 nM.

Regarding `Cc1c(F)c(OCC(=O)O)cc(Cl)c1Cc1ccc(O)c(C(C)C)c1` [Compound 118, 2-(5-chloro-2-fluoro-4-(4-hydroxy-3-isopropylbenzyl)-3-methylphenoxy)acetic acid], the EC50 in assay [1] was 100 to 1000 nM. Further, in assay [2], the “T3-SI (selectivity index)” value is “+++ (T3-SI>30×)” and the EC50 lay in the range of 10 to 100 nM.

Take `C=C(C)c1c(F)c(OCC(=O)O)cc(Cl)c1Cc1ccc(O)c(C(C)C)c1F` [Compound 121, 2-(5-chloro-2-fluoro-4-(2-fluoro-4-hydroxy-3-isopropylbenzyl)-3-(prop-1-en-2-yl)phenoxy)acetic acid]: the EC50 in assay [1] is greater than 1000 nM. Further, in assay [2], the “T3-SI (selectivity index)” value was “++ (3×<T3-SI≤30×)” and the EC50 is 100 to 1000 nM.

Consider `CC(C)c1c(O)ccc(Cc2c(Cl)cc(OCC(=O)O)c(F)c2C(C)C)c1F` [Compound 123, 2-(5-chloro-2-fluoro-4-(2-fluoro-4-hydroxy-3-isopropylbenzyl)-3-isopropylphenoxy)acetic acid], for which the EC50 in assay [1] was 100 to 1000 nM. For the same compound, in assay [2], the “T3-SI (selectivity index)” value is “++ (3×<T3-SI≤30×)” and the EC50 is 10 to 100 nM.
